# ChEMBL document CHEMBL1201862, “PubChem BioAssay data set” (2004)
# Active and inactive are the calls of the source.
# Key:
# [1] = target: T1, SUMO-activating enzyme (Homo sapiens, UniProt Q9UBT2); assay: SUMOylation inhibitor hit validation, confirmation, SUMOylation inhibitor project, biochemical, AlphaScreen (AID 2018); assay type: functional
# [2] = target: Large T antigen (Simian virus 40, UniProt P03070); assay type: functional, Betapolyomavirus macacae;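 also: Confirmatory-stage PubChem screen for compounds that inhibit SV40 T antigen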
# [3] = target: T1, SUMO-activating enzyme; assay: inhibitors of in vitro SUMOylation cascade, primary screen, biochemical, HTRF, uHTS (AID 2006); assay type: protein-complex assay
# [4] = target: Intestinal-type alkaline phosphatase (Mus musculus, UniProt P24822); assay: PubChem AID 488785; assay type: functional
# [5] = target: T2, Alkaline phosphatase, tissue-nonspecific isozyme (Homo sapiens, UniProt P05186); assay: TNAP enzyme inhibition by screening hits, dose response, selectivity assay for mouse IAP inhibitor project, biochemical, human TNAP, uHTS hits (AID 488906); assay type: functional
# T2 sequence (P05186 whole entry): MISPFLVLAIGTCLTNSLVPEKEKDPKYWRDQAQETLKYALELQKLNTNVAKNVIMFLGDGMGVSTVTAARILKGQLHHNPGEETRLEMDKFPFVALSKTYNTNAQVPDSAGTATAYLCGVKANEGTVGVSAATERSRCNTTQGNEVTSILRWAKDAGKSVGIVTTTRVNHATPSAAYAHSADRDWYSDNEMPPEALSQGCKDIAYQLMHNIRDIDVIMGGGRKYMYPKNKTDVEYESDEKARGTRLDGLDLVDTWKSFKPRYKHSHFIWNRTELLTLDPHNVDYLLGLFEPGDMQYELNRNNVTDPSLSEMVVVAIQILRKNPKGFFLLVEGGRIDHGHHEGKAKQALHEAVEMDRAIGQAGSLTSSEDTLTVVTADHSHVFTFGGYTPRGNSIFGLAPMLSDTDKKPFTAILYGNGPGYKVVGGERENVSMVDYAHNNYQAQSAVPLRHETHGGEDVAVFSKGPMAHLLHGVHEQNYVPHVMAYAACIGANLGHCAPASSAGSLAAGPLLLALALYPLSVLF
# [6] = target: Intestinal-type alkaline phosphatase (Homo sapiens, UniProt P09923); assay: inhibition of human intestinal alkaline phosphatase – biochemical, dose response (AID 488876); assay type: functional
# [7] = target: Kappa-type opioid receptor (Homo sapiens, UniProt P41145); assay: SAR analysis of small molecule agonists of the kappa opioid receptor via a luminescent beta-arrestin assay - Set 3. [Related pubchem assays (depositor defined):AID1777, AID1785, AID1786, AID1966, AID2133, AID2136, AID2284, AID2500]; assay type: functional
# [8] = target: Lysine-specific demethylase 4A (Homo sapiens, UniProt O75164); assay: JMJD2A histone demethylase inhibitors, dose response, selectivity assay for GASC-1 inhibitor project, biochemical, DELFIA europium, cherry-picked samples (AID 488840)
# [9] = target: Lysine-specific demethylase 4C (Homo sapiens, UniProt Q9H3R0); assay: GASC-1 (JMJD2C) histone demethylase inhibitors, dose response, biochemical, DELFIA europium, cherry-picked samples (AID 488835); assay type: functional
# [10] = Luminescence Cell-Based Dose Response HTS to Identify Inhibitors of Luciferase Translation or Activity in H4-C Neuroglioblastoma Cells. [Related pubchem assays: 1813 (Primary HTS), 1827 (Project Summary)]; assay type: functional
# [11] = Luminescence Cell-Based Dose Response HTS to Identify Activators of Luciferase Translation or Activity in H4-C Neuroglioblastoma Cells. [Related pubchem assays: 1829 (Project Summary), 1814 (Primary HTS)]; assay type: functional
# [12] = inhibitors of firefly luciferase expression or activity, dose response, H4 neuroglioma cells, luminescence (AID 1990); assay type: functional, cell-based
# [13] = Luminescence Cell-Based Dose Retest to Confirm Activators of 5'UTR Stem-Loop Driven Alpha-Synuclein mRNA Translation in H4 Neuroglioblastoma Cells. [Related pubchem assays (depositor defined):AID1813, AID1829]; assay type: functional
# [14] = Luminescence Cell-Based Dose Response HTS to Identify Activators of 5'UTR Stem-Loop Driven Prion Protein mRNA Translation in H4-C Neuroglioblastoma Cells. [Related pubchem assays: 1829 (Project Summary), 1814 (Primary HTS)]; assay type: functional
# [15] = Luminescence Cell-Based Dose HTS Response to Identify Inhibitors of 5'UTR Stem-Loop Driven Prion Protein mRNA Translation in H4-C Neuroglioblastoma Cells. [Related pubchem assays (depositor defined):AID1814, AID1827]; assay type: functional
# [16] = Luminescence Cell-Based Dose Response HTS to Identify Inhibitors of 5'UTR Stem-Loop Driven Prion Protein mRNA Translation in H4 Neuroglioblastoma Cells. [Related pubchem assays: 1827 (Project Summary), 1813 (Primary HTS)]; assay type: functional
# [17] = inhibitors of SNCA 5'UTR-driven reporter translation, confirmation, H4 neuroglioma cells, luminescence (AID 1988); assay type: functional, cell-based
# [18] = Luminescence Cell-Based Dose Confirmation HTS to Identify Inhibitors of 5'UTR Stem-Loop Driven Alpha-Synuclein mRNA Translation in H4 Neuroglioblastoma Cells. [Related pubchem assays: 1827 (Project Summary), 1813 (Primary HTS)]; assay type: functional
# [19] = Luminescence Cell-Based Dose Retest to Confirm Inhibitors of Cancer Stem Cells. [Related pubchem assays (depositor defined):AID2717, AID2721]; assay type: functional; conditions: Homo sapiens
# [20] = target: T3, CAAX prenyl protease 2 (Saccharomyces cerevisiae S288c, UniProt Q03530); assay type: biochemical
# T3 sequence (Q03530 whole entry): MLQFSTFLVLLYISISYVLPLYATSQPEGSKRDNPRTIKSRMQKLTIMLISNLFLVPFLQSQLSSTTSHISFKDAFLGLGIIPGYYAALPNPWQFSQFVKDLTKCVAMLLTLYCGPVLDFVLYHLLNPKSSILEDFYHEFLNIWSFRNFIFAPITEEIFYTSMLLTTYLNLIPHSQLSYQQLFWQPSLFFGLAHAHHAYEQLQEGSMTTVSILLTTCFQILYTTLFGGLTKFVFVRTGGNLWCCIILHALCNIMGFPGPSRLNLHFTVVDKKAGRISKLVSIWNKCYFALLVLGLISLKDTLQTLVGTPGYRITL
# [21] = mammalian cell cytotoxicity, dose response, cytotoxicity control, plate reader, cherry-pick samples (AID 504397); assay type: functional, cell-based
# [22] = target: T4, G-protein coupled receptor 55 (Homo sapiens, UniProt Q9Y2T6); assay: GPR55 antagonists blocking LPI-driven arrestin recruitment, primary screen, imaging, U2OS, beta-arrestin-GFP, LPI agonist (AID 2013); assay type: functional;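 also: antagonist potency measured as reduced agonist-driven arrestin aggregation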
# T4 sequence (Q9Y2T6 whole entry): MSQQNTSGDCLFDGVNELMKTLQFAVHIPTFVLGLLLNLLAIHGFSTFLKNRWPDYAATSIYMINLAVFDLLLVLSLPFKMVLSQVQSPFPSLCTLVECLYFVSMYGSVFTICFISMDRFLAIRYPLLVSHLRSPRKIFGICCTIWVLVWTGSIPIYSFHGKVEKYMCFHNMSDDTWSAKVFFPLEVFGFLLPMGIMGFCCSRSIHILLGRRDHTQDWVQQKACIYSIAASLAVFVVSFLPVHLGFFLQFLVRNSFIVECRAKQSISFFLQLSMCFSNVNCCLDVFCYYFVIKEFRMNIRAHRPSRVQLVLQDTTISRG
# [23] = target: T5, Cannabinoid receptor 1 (Homo sapiens, UniProt P21554); assay: SAR analysis of antagonists of the Cannabinoid Receptor 1 using an Image-Based Assay - Set 2. [Related pubchem assays (depositor defined):AID2013, AID2026]; assay type: functional
# T5 sequence (P21554 whole entry): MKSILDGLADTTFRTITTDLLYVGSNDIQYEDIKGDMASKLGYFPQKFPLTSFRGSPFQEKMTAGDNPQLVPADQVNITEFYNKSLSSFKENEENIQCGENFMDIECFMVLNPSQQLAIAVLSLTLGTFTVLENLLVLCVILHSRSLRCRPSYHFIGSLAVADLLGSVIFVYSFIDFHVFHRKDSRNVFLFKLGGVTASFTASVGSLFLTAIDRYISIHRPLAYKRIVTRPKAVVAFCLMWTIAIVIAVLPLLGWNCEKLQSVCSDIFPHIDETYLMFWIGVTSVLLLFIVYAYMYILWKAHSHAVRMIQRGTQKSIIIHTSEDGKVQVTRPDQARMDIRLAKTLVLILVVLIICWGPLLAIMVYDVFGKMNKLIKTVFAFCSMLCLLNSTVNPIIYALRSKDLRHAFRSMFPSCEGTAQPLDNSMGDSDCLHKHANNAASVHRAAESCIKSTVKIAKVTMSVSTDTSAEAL
# [24] = target: T6, G-protein coupled receptor 35 (Homo sapiens, UniProt Q9HC97); assay: SAR analysis of Agonists of the GPR35 Receptor using an Image-Based Assay - Set 2. [Related pubchem assays (depositor defined):AID2013, AID2026]; assay type: functional
# T6 sequence (Q9HC97 whole entry): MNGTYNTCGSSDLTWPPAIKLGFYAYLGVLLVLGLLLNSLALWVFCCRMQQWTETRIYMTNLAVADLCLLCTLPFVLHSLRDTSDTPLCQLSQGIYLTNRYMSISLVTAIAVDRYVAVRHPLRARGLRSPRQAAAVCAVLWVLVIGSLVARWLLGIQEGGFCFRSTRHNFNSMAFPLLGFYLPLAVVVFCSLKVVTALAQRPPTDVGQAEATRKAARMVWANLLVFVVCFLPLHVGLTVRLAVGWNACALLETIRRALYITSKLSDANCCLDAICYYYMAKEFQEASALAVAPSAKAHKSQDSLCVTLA
# [25] = target: T7, Cannabinoid receptor 2 (Homo sapiens, UniProt P34972); assay: SAR analysis of antagonists of the Cannabinoid Receptor 2 using an Image-Based Assay. [Related pubchem assays (depositor defined):AID2013, AID2026]; assay type: functional
# T7 sequence (P34972 whole entry): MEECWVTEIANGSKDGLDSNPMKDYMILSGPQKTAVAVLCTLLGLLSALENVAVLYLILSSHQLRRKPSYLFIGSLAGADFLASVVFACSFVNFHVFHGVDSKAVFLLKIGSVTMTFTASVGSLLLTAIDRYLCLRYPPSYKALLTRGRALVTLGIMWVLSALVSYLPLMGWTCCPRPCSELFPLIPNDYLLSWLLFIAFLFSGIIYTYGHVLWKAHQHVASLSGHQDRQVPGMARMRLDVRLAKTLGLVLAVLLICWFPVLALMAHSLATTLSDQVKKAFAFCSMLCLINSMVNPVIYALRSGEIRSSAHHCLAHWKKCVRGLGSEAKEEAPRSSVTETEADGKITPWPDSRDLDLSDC
# [26] = target: T5, Cannabinoid receptor 1; assay: SAR analysis of agonists of the Cannabinoid Receptor 1 using an Image-Based Assay - Set 2. [Related pubchem assays (depositor defined):AID2013, AID2026]; assay type: functional
# [27] = target: T6, G-protein coupled receptor 35; assay: SAR analysis of Antagonists of the GPR35 Receptor using an Image-Based Assay - Set 3. [Related pubchem assays (depositor defined):AID2013, AID2026]; assay type: functional
# [28] = target: T4, G-protein coupled receptor 55; assay: GPR55 antagonist potency of analogs, SAR follow-up, imaging, U2OS, beta-arrestin-GFP, LPI agonist, set 2 (AID 2820); assay type: functional
# [29] = target: T7, Cannabinoid receptor 2; assay: SAR analysis of agonists of the Cannabinoid Receptor 2 using an Image-Based Assay. [Related pubchem assays (depositor defined):AID2013, AID2026]; assay type: functional
# [30] = target: Voltage-dependent T-type calcium channel subunit alpha-1H (Homo sapiens, UniProt O95180); assay: Cav3.2 T-type channel blockers, cell-based, SynthLib3 library, HEK293 Cav3.2, fluorescence (AID 493041); assay type: functional
# Chain of Voltage-dependent T-type calcium channel subunit alpha-1H (O95180 whole entry): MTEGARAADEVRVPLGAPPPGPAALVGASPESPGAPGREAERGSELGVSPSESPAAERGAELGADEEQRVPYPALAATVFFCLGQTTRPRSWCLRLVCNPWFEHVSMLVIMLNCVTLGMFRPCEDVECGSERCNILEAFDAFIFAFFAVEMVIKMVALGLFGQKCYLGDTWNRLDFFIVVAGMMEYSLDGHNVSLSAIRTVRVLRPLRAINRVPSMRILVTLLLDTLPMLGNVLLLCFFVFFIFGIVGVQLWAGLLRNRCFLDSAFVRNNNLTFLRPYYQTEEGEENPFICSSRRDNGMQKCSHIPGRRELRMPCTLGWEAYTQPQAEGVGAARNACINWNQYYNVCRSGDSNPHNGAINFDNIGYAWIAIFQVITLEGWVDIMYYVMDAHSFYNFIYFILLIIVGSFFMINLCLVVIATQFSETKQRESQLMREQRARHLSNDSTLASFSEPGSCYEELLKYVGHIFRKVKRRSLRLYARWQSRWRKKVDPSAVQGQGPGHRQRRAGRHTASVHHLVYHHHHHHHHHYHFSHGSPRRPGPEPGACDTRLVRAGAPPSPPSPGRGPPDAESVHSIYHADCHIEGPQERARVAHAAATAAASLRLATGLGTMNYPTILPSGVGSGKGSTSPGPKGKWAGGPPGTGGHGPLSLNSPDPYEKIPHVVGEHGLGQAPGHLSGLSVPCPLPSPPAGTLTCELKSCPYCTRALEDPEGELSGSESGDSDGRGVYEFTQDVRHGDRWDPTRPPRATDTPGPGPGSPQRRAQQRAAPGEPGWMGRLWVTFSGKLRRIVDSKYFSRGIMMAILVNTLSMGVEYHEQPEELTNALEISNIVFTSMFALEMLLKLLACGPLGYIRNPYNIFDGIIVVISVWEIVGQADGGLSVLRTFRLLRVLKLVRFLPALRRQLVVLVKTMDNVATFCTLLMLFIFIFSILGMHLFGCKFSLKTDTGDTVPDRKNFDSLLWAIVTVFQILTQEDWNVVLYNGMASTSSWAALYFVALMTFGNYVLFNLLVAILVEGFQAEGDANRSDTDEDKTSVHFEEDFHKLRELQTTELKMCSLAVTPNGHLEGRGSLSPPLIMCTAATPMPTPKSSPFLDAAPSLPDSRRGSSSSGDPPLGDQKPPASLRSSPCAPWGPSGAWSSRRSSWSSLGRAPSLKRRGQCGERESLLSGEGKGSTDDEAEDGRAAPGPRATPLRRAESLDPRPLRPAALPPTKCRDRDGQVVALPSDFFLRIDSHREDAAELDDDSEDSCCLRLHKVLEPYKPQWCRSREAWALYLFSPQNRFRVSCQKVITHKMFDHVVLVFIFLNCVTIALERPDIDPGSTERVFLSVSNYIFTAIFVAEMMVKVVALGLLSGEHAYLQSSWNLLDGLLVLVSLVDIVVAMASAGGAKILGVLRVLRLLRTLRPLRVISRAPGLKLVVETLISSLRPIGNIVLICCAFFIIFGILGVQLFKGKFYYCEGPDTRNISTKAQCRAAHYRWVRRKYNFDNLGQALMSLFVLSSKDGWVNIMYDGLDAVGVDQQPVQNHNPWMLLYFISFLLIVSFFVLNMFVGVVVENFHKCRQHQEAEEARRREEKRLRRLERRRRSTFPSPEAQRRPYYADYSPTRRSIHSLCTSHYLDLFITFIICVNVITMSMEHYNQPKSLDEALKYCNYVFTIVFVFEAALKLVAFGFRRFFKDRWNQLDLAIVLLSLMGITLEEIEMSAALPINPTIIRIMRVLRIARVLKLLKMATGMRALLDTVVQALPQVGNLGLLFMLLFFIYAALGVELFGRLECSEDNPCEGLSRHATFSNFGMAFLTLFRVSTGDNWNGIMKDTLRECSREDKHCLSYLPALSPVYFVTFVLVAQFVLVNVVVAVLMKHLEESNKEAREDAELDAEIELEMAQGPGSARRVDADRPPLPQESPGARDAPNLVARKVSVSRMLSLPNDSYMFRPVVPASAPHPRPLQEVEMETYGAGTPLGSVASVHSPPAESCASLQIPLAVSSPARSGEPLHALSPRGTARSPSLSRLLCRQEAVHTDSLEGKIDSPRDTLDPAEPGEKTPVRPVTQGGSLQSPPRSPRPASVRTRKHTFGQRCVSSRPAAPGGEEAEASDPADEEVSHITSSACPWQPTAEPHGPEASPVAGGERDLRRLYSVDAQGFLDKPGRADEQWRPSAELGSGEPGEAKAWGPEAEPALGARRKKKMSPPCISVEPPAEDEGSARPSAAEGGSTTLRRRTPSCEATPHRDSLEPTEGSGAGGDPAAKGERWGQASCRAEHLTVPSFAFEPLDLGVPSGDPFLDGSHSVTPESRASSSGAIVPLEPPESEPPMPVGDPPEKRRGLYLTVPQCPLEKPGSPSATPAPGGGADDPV
# [31] = decrease of PhoP-driven GFP reporter signal, S. Typhimurium, dose response, PhoP regulon inhibitor project, purified and synthesized compounds, set 2 (AID 2831); assay type: functional
# [32] = target: T8, RNA-binding protein pos-1 (Caenorhabditis elegans, UniProt G5EF15); assay: inhibitors of POS-1/mex-3 RNA binding, dose response, biochemical, fluorescence polarization (AID 1964);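 also: purified POS-1 fused to maltose binding protein made in E. coli; potency of compounds blocking POS-1 binding to fluorescent RNA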
# T8 sequence (G5EF15 whole entry): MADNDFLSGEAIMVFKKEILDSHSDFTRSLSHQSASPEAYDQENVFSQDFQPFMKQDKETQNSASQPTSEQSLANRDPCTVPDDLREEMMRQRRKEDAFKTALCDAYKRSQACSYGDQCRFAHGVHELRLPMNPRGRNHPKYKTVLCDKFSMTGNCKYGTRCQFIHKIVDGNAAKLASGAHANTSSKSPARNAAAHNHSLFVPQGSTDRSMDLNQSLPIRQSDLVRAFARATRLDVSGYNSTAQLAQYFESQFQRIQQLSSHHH
# [33] = target: T9, Zinc finger protein mex-5 (Caenorhabditis elegans, UniProt Q9XUB2); assay: MEX-5/TCR-2 RNA interaction inhibitors, dose response, biochemical, C. elegans, fluorescence polarization (AID 1960)
# T9 sequence (Q9XUB2 whole entry): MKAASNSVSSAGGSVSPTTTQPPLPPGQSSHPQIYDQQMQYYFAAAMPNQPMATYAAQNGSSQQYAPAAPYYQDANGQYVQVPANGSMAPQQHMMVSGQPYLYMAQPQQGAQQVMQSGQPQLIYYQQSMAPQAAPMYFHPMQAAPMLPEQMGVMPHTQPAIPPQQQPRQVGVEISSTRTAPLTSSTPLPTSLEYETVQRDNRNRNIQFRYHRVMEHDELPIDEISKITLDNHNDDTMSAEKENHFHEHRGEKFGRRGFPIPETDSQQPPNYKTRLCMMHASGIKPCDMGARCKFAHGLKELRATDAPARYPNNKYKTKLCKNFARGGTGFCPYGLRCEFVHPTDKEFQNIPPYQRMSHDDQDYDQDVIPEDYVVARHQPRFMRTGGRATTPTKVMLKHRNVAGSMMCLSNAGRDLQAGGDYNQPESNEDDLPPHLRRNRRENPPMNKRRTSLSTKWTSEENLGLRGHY
# [34] = target: SUMO E1/E2 (Homo sapiens, UniProt P63279+Q9UBE0+Q9UBT2); assay: SAR analysis of SUMOylation using HTRF in an in-Vitro dose response assay. [Related pubchem assays (depositor defined):AID2006, AID2011, AID2018, AID2069, AID2658]; assay type: functional
# Chain of SUMO E1/E2 (Q9UBE0 whole entry): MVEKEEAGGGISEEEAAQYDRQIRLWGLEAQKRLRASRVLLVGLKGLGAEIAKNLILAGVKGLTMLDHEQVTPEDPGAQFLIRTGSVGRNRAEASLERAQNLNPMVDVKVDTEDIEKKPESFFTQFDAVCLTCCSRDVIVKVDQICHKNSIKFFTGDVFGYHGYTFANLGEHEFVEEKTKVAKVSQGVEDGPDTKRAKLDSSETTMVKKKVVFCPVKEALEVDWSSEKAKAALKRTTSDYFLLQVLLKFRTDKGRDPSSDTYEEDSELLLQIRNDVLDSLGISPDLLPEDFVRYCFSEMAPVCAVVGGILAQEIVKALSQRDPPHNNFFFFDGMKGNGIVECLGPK
# Chain of SUMO E1/E2 (Q9UBT2 whole entry): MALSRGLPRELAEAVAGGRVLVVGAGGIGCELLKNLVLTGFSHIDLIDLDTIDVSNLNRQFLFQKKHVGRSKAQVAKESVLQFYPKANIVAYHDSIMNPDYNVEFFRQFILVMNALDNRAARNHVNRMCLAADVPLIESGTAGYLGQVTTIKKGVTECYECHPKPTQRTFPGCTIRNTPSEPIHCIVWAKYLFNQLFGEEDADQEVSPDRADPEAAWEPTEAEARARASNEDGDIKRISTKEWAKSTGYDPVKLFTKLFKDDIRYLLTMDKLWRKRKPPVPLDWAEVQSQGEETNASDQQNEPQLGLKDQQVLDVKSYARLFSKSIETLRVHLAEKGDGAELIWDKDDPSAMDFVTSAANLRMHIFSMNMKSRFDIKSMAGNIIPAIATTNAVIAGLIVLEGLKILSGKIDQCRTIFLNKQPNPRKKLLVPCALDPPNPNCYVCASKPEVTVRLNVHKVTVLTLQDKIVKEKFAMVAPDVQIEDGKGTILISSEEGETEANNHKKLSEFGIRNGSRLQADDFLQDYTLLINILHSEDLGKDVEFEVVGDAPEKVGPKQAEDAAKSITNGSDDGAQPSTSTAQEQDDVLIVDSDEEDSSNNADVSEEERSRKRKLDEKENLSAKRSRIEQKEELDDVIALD
# Chain of SUMO E1/E2 (P63279 whole entry): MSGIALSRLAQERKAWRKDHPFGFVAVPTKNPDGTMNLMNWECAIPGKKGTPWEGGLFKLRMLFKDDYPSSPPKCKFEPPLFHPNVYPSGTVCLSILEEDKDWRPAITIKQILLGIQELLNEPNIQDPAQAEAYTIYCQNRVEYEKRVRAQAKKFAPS
# [35] = target: T10, Sentrin-specific protease 8 (Homo sapiens, UniProt Q96LD8); assay type: functional
# T10 sequence (Q96LD8 whole entry): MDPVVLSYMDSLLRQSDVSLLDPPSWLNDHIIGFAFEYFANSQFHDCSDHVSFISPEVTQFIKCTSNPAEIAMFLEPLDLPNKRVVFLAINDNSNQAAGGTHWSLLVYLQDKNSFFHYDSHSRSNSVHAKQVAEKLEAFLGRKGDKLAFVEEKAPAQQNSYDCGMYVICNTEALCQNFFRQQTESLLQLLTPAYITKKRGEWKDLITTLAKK
# [36] = target: T10, Sentrin-specific protease 8; assay type: functional; remark: listed apart in the source
# [37] = target: Tyrosyl-DNA phosphodiesterase 2 (Homo sapiens, UniProt O95551); assay: human TDP2 enzyme inhibitors, dose response, biochemical, epi absorbance, IC50 (AID 743297)
# T1 sequence (Q9UBE0 whole entry): as the sequence (Q9UBE0 whole entry) above
# T1 sequence (Q9UBT2 whole entry): as the sequence (Q9UBT2 whole entry) above
smiles,measurement,setting,value
NC1=NC(=O)/C(=C\c2ccco2)S1,IC50,[1],2.89 µM (active)
same,IC50,[2],67.2 µM (active)
same,IC50,[3],21.7 µM (active)
same,IC50,[4],4.59 µM (active)
same,IC50,[5],> 100 µM (inactive)
same,IC50,[6],19.8 µM (active)
FC(F)(F)c1cc(CSc2nnc(-c3ccccn3)n2Cc2cccnc2)ccc1Cl,EC50,[7],0.501 µM (active)
Cc1ccc(C)c(Cn2c(C(=O)OC(C)C)cc3c2ccn3C)c1,AC50,[8],21.9 µM (active)
same,AC50,[9],11.6 µM (active)
COc1ccc(/C=N/NC(=O)c2cc3c(OC)ccc(OC)c3[nH]2)cc1O,EC50,[10],0.747 µM (active)
same,EC50,[11],2.51 µM (inconclusive)
same,EC50,[12],9.89 µM (active)
same,EC50,[13],29.5 µM (inconclusive)
same,EC50,[14],0.765 µM (inconclusive)
same,EC50,[15],1.75 µM (active)
same,EC50,[16],13.3 µM (active)
same,EC50,[17],0.291 µM (active)
same,EC50,[18],2.9 µM (active)
Clc1cccc(CN2CCc3c([nH]c4ccccc34)C2)c1Cl,AC50,[19],4.83 µM (active)
same,AC50,[20],3.27 µM (active)
same,AC50,[21],117 µM (active)
Cc1cccc2c1NC(=O)C2(c1ccc(O)cc1)c1ccc(O)cc1,IC50,[22],2.53 µM (active)
same,IC50,[23],31.3 µM (inactive)
same,EC50,[24],> 32 µM (inactive)
same,IC50,[25],> 32 µM (inactive)
same,EC50,[26],> 32 µM (inactive)
same,IC50,[27],7.66 µM (active)
same,IC50,[28],0.125 µM (active)
same,EC50,[29],> 32 µM (inactive)
O=C(COc1ccc(F)c(Cl)c1)N[C@H]1CCCN(CC2CCCC2)C1,EC50,[30],10 µM (active)
S=C(NCc1ccc(Cl)cc1)Nc1ccc(Cl)cc1,IC50,[31],> 150 µM (active)
Cc1[nH][nH]c(=O)c1C(c1ccc(-c2cccc(C(=O)O)c2)o1)c1c(C)[nH][nH]c1=O,EC50,[32],18.1 µM (active)
same,EC50,[33],5.56 µM (active)
same,IC50,[34],84.1 µM (active)
same,IC50,[35],17.8 µM (active)
same,IC50,[36],11.9 µM (active)
same,IC50,[37],> 128 µM (inactive)
